Test [1] concerns the target T1, human GLP-1 receptor (Homo sapiens, UniProt P43220).
T1 construct: expressed in transfected cells; host or cells: membranes of BHK cells (parent BHKTS13), clone FCW467-12A
The test is described as follows: Assay (I)(a) GLP-1 receptor activation, CRE luciferase reporter gene assay in BHK cells. It counts as cell-based. The conditions noted are these: without presence of serum albumin; read-out: GLP-1R EC50 (pM) [Assay (I)(a)]. On the procedure:
The purpose of this example was to test the activity or potency, of the glucagon derivatives of the invention, in vitro. The in vitro potency is the measure of human GLP-1 receptor (GLP-1R) or glucagon receptor (glucagonR) activation, respectively, in a whole cell assay. In vitro potency was determined by measuring the response of human GLP-1 or glucagon receptor, respectively, in a reporter gene assay. The assay was performed in a stably transfected BHK cell line that expresses either the human GLP-1 receptor or the human glucagon receptor and contains the DNA for the cAMP response element (CRE) coupled to a promoter and the gene for firefly luciferase (CRE luciferase). […] When assay incubation was completed, the luciferase substrate (luciferin) was added and the enzyme converted luciferin to oxyluciferin and produces bioluminescence. The luminescence was measured as the readout for the assay. The cells used in this assay (clone FCW467-12A/KZ10-1) were BHK cells with BHKTS13 as a parent cell line. The cells were derived from a clone (FCW467-12A) that expresses the human GLP-1 receptor and were established by further transfection with CRE luciferase to obtain the current clone. The cells were cultured at 5% CO2 in DMEM medium with 10% FBS, 1×GlutaMAX, 1 mg/ml G418, 240 nM MTX (methotrexate) and 1% pen/strep (penicillin/streptomycin). They were aliquoted and stored in liquid nitrogen. Before each assay, an aliquot was taken up and washed three times in PBS before being suspended at the desired concentration in assay medium. For 96-well plates the suspension was made to give a final concentration of 5×10EE3 cells/well. The following chemicals were used in the assay: Pluronic F-68 (10%) (Gibco 2404), ovalbumin (Sigma A5503), DMEM w/o phenol red (Gibco 11880-028), 1 M Hepes (Gibco 15630), Glutamax 100× (Gibco 35050) and steadylite plus (PerkinElmer 6016757). Assay Medium consisted of DMEM w/o phenol red, 10 mM Hepes, 1× GlutaMAX, 2% Ovalbumin and 0.2% Pluronic F-68. Cell stocks were thawed in a 37° C. water bath. Cells were washed three times in PBS. The cells were counted and adjusted to 5×10EE3 cells/50 μl (1×10EE5 cells/ml) in Assay Medium. A 50 μl aliquot of cells was transferred to each well in the assay plate. Stocks of the test compounds and reference compounds were diluted to a concentration of […] in Assay Medium. Compounds were diluted 10-fold to give the following concentrations: 2×10EE-6 M, 2×10EE-7 M, 2×10EE-8 M; 2×10EE-9 M, 2×10EE-10 M, 2×10EE-11 M, 2×10EE-12 M and 2×10EE-13 M. For each compound a blank assay medium control was also included. A 50 μl aliquot of compound or blank was transferred from the dilution plate to the assay plate. Compounds were tested at the following final concentrations: 1×10EE-6 M, 1×10EE-7 M, 1×10EE-8 M; 1×10EE-9 M, 1×10EE-10 M, 1×10EE-11 M and 1×10EE-12 M and 1×10EE-13 M. The assay plate was incubated for 3 h in a 5% CO2 incubator at 37° C. The assay plate was removed from the incubator and allowed to stand at room temperature for 15 min. A 100 μl aliquot of steadylite plus reagent was added to each well of the assay plate (reagent is light sensitive). Each assay plate was covered with aluminum foil to protect it from light and shaken for 30 min at room temperature. Each assay plate was read in a Perkin Elmer TopCount NXT instrument. The data from the TopCount instrument was transferred to GraphPad Prism software. The software performed a non-linear regression (log(agonist) vs response-Variable slope (four parameter)). EC50 values were calculated by the software and reported in pM.
On the technique in general: A reporter such as luciferase makes a cellular process visible.

For test [2], the target named is T1, human GLP-1 receptor. Kind of test: Assay (II)(a) GLP-1 receptor binding, 125I-GLP-1 displacement SPA on BHK membranes. The conditions noted are these: without presence of serum albumin; read-out: GLP-1R IC50 (nM) [Assay (II)(a)]. On the procedure: The GLP-1 receptor (GLP-1R) binding is a measure of affinity of a compound for the human GLP-1 receptor. The receptor binding of each compound to the human GLP-1 receptor was measured in a displacement binding assay. In this type of assay a labelled ligand (in this case 125I-GLP-1) is bound to the receptor. Each derivative was added in a series of concentrations to isolated membranes containing the human GLP-1 receptor and displacement of the labelled ligand was monitored. The receptor binding was reported as the concentration at which half of the labelled ligand was displaced from the receptor, the IC50 value. In order to test the binding of the derivatives to albumin, the assay may be performed in a very low concentration of serum albumin (max. 0.001% final assay concentration) as well as in the presence of a (considerably) higher concentration of serum albumin (2.0% final assay concentration). An increase of the IC50 value, in the presence of serum albumin indicates an affinity to serum albumin and represents a method to predict a protracted pharmacokinetic profile of the test substance in animal models. The following chemicals were used in the assay: DMEM w/o phenol red (Gibco 11880-028), Pen/strep (Invitrogen 15140-122), G418 (Invitrogen 10131-027), 1 M Hepes (Gibco 15630), EDTA (Invitrogen 15575-038), PBS (Invitrogen 14190-094), fetal calf serum (Invitrogen 16140-071), EGTA, MgCl2 (Merck 1.05832.1000), Tween 20 (Amresco 0850C335), SPA particles (wheat germ agglutinin (WGA) SPA beads, Perkin Elmer RPNQ0001), [125I]-GLP-1]-(7-36)NH2 (produced in-house), OptiPlate™-96 (Perkin Elmer). Buffer 1 consisted of 20 mM Na-HEPES plus 10 mM EDTA and pH was adjusted to 7.4. Buffer 2 consisted of 20 mM Na-HEPES plus 0.1 mM EDTA and pH was adjusted to 7.4. Assay buffer consisted of 50 mM HEPES supplemented with 5 mM EGTA, 5 mM MgCl2, 0.005% Tween 20 and pH was adjusted to 7.4. The cells used in this assay (clone FCW467-12A) were BHK cells with BHKTS13 as a parent cell line. The cells express the human GLP-1 receptor. The cells were grown at 5% CO2 in DMEM, 10% fetal calf serum, 1% Pen/Strep (Penicillin/Streptomycin) and 1.0 mg/ml of the selection marker G418. To make a membrane preparation the cells were grown to approximately 80% confluence. The cells were washed twice in phosphate-buffered saline and harvested. The cells were pelleted using a brief centrifugation and the cell pellet was kept on ice. The cell pellet was homogenised with ULTRA-THURRAX dispersing instrument for 20-30 seconds in a suitable amount of buffer 1 (e.g., 10 ml). The homogenate was centrifuged for 15 minutes. The pellet was re-suspended (homogenised) in 10 ml buffer 2 and centrifuged. This step was repeated once more. The resulting pellet was re-suspended in buffer 2 and the protein concentration was determined. The membranes were aliquoted and stored at minus 80° C. • 1. For the receptor binding assay, 50 μl of the assay buffer was added to each well of an assay plate. • 2. Test compounds were serially diluted to give the following concentrations: 8×10EE-7 M, 8×10EE-8 M, 8×10EE-9 M, 8×10EE-10 M, 8×10EE-11 M, 8×10EE-12 M and 8×10EE-13 M. Twenty-five μl were added to appropriate wells in the assay plate. • 3. Cell membrane aliquots were thawed and diluted to their working concentration. Fifty μl were added to each well in the assay plate. • 4. WGA SPA beads were suspended in assay buffer at 20 mg/ml. The suspension was diluted to 10 mg/ml in assay buffer just prior to addition to the assay plate. Fifty μl were added to each well in the assay plate. • 5. The incubation was started by adding 25 μl of […] solution of [125I]-GLP-1]-(7-36)NH2 to each well of the assay plate. A 25 μl aliquot was reserved for measuring total counts/well. • 6. The assay plate was incubated for 2 h at 30° C. • 7. The assay plate was centrifuged for 10 min. • 8. The assay plate was read in a Perkin Elmer TopCount NXT instrument. […]

Molecules are shown by their SMILES. Starred links: 1 amine or outer side, 2 acyl side, 3 side chain; linkers in the order of their positions; H or OH if unused. Non-standard residues stand in square brackets, D forms with d. Residues, ends and D or L forms follow the SMILES beside them. Groups on a side chain read outwards from the residue. *: point of attachment. C18 diacid = O=C(O)CCCCCCCCCCCCCCCCC(=O)*; γGlu = O=C(O)[C@H](CCC(=O)[*:2])N[*:1]; AEEA = NCCOCCOCC(=O)O; Aib = CC(C)(N)C(=O)O

T1 sequence (P43220 24-463): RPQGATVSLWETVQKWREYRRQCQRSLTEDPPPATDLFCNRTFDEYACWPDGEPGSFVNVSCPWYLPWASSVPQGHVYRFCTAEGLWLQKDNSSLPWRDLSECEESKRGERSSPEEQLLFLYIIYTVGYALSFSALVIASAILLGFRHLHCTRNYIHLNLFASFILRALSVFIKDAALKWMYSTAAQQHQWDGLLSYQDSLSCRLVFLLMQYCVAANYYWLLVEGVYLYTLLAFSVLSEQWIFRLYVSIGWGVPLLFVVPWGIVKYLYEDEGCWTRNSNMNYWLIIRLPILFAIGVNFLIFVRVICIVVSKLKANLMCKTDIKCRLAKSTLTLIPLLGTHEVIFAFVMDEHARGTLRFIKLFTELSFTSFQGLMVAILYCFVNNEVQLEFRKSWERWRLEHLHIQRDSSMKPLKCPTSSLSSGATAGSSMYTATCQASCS

As for `CC[C@H](C)[C@H](NC(=O)[C@H](CC(C)C)NC(=O)[C@H](Cc1c[nH]c2ccccc12)NC(=O)[C@H](CCC(N)=O)NC(=O)[C@@H](NC(=O)[C@H](Cc1ccccc1)NC(=O)[C@H](CC(=O)O)NC(=O)[C@H](CCC(N)=O)NC(=O)[C@H](C)NC(=O)[C@H](CCCNC(=N)N)NC(=O)[C@H](CCCNC(=N)N)NC(=O)[C@@H](NC(=O)[C@H](CC(=O)O)NC(=O)[C@H](CC(C)C)NC(=O)[C@H](Cc1ccc(O)cc1)NC(=O)[C@H](CCCCN)NC(=O)[C@H](CO)NC(=O)[C@H](CC(C)C)NC(=O)[C@H](CC(=O)O)NC(=O)[C@H](CO)NC(=O)[C@@H](NC(=O)[C@H](Cc1ccccc1)NC(=O)[C@@H](NC(=O)CNC(=O)[C@H](CCC(N)=O)NC(=O)C(C)(C)NC(=O)[C@@H](N)Cc1c[nH]cn1)[C@@H](C)O)[C@@H](C)O)C(C)C)C(C)C)C(=O)N[C@@H](CCCCNC(=O)CC[C@H](NC(=O)COCCOCCNC(=O)COCCOCCNC(=O)CC[C@H](NC(=O)CC[C@H](NC(=O)CCCCCCCCCCCCCCCCC(=O)O)C(=O)O)C(=O)O)C(=O)O)C(=O)N[C@H](C(N)=O)[C@@H](C)O` [Chem. 40, N^ε28-[(4S)-4-carboxy-4-[[2-[2-[2-[[2-[2-[2-[[(4S)-4-carboxy-4-[[(4S)-4-carboxy-4-(17-carboxyheptadecanoylamino)butanoyl]amino]butanoyl]amino]ethoxy]ethoxy]acetyl]amino]ethoxy]ethoxy]acetyl]amino]butanoyl]-[Aib2,Leu10,Val16,Ile27,Lys28]-Glucagon amide] (H-H[Aib]QGTFTSDLSKYLDVRRAQDFVQWLIK([γGlu-AEEA-AEEA-γGlu-γGlu-C18 diacid])T-NH2; N-terminus assumed), in test [1], the EC50 – broadly, the concentration giving half of the maximal effect – stood at 3 pM. In the case of `CC[C@H](C)[C@H](NC(=O)[C@H](CC(C)C)NC(=O)[C@H](Cc1c[nH]c2ccccc12)NC(=O)[C@H](CCCCNC(=O)COCCOCCNC(=O)COCCOCCNC(=O)CC[C@H](NC(=O)CC[C@H](NC(=O)CC[C@H](NC(=O)CCCCCCCCCCCCCCCCC(=O)O)C(=O)O)C(=O)O)C(=O)O)NC(=O)[C@@H](NC(=O)[C@H](Cc1ccccc1)NC(=O)[C@H](CC(=O)O)NC(=O)[C@H](CCCNC(=N)N)NC(=O)[C@H](C)NC(=O)[C@H](CCCNC(=N)N)NC(=O)[C@H](CCCNC(=N)N)NC(=O)[C@H](C)NC(=O)[C@H](CC(=O)O)NC(=O)[C@H](CC(C)C)NC(=O)[C@H](Cc1ccc(O)cc1)NC(=O)[C@H](CCCCN)NC(=O)[C@H](CO)NC(=O)[C@H](Cc1ccc(O)cc1)NC(=O)[C@H](CC(=O)O)NC(=O)[C@H](CO)NC(=O)[C@@H](NC(=O)[C@H](Cc1ccccc1)NC(=O)[C@@H](NC(=O)CNC(=O)[C@H](CCC(N)=O)NC(=O)C(C)(C)NC(=O)[C@@H](N)Cc1c[nH]cn1)[C@@H](C)O)[C@@H](C)O)C(C)C)C(=O)N[C@@H](CO)C(=O)N[C@H](C(N)=O)[C@@H](C)O` [Chem. 1, N^ε24-[2-[2-[2-[[2-[2-[2-[[(4S)-4-carboxy-4-[[(4S)-4-carboxy-4-[[(4S)-4-carboxy-4-(17-carboxyheptadecanoylamino)butanoyl]amino]butanoyl]amino]butanoyl]amino]ethoxy]ethoxy]acetyl]amino]ethoxy]ethoxy]acetyl]-[Aib2,Ala16,Arg20,Lys24,Ile27,Ser28]-Glucagon amide] (H-H[Aib]QGTFTSDYSKYLDARRARDFVK([AEEA-AEEA-γGlu-γGlu-γGlu-C18 diacid])WLIST-NH2), the IC50 – broadly, the concentration that gives 50% inhibition – in test [2] turned out to be 0.9 nM.

The values above are taken from patent US10570184B2, “GLP-1/glucagon receptor co-agonists for medical use” (Novo Nordisk A/S, priority 2014, dated 2020).
